Data set [1] addresses T1, VAChT (Tetronarce californica, UniProt P81721).
T1 construct: using highly purified Torpedo synaptic vesicles; from tissue
T1 sequence (P81721 1-515): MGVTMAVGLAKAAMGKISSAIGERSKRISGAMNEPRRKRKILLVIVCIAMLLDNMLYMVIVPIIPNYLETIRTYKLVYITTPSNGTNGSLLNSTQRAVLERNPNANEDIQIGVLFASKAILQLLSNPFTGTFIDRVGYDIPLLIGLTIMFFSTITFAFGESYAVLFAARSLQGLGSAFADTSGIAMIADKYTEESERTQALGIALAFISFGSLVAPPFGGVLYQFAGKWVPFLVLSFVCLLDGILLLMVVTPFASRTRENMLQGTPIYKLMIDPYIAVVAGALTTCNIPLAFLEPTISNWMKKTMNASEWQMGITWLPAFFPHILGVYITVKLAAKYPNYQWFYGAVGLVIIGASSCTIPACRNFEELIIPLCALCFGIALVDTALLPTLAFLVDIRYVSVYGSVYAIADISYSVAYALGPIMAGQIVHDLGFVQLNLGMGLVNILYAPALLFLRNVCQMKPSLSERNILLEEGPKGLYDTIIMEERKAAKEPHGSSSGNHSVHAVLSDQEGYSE
The experiment in a line: biochemical. The data set is classed as binding. The note with it: for VAChT/σ selectivity: in words; for σ1/VAChT: selectivity index Ki (σ1)/Ki (VAChT); for σ2/VAChT: selectivity index Ki (σ2)/Ki (VAChT).

Data set [2] concerns the target T2, σ1 receptors (Rattus norvegicus, UniProt Q9R0C9).
T2 construct: tested in rat brain and in guinea pig membranes, respectively; from tissue; host or cells: rat brain
The data set can be described thus: σ1 binding of Table 5 compounds.

For data set [3], the target named is T3, σ2 receptor (Rattus norvegicus, UniProt Q5U3Y7).
T3 sequence (Q5U3Y7 1-176): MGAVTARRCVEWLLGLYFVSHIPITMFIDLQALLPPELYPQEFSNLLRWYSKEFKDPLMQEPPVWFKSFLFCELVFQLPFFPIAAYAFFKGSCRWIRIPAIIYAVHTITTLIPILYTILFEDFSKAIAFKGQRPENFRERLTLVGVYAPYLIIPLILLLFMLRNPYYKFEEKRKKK
The data set can be described thus: σ2 binding of Table 5 compounds. Also noted: species or system guinea pig. The following applies: read-out: σ2 Ki (nM) ± SEM; Table 6. The method, then: Compounds were tested for VAChT binding using highly purified Torpedo synaptic vesicles. The σ1 and σ2 binding affinities were tested in rat brain and in guinea pig membranes, respectively. Structures and Equilibrium binding constants (Ki) are reported in Table 5 and Table 6, respectively. As in previous studies, we define ligand selectivity in terms of a selectivity index which is calculated as Ki (σ1 or σ2)/Ki (VAChT).
Consequently, we also screened the target compounds for sigma binding to identify selective VAChT ligands from this new structural class of agents.

Data set [4] deals with σ1 receptor (Homo sapiens, UniProt Q99720). The note with it: prior art ligands of FIG. 1; read-out: σ1 receptor binding affinity; cited from earlier work.
σ1 receptor (Homo sapiens, UniProt Q99720), sequence (Q99720 whole entry, species assumed): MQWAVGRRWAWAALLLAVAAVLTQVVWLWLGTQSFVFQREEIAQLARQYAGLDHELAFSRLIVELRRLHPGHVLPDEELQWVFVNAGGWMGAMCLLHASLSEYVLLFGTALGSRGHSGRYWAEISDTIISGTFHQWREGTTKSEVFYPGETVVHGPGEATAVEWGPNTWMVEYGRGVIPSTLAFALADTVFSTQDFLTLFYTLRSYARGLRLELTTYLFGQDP
Data set [5] has as its target T3, σ2 receptor. The data set can be described thus: σ2 receptor binding assay, [3H]DTG, rat liver membrane homogenates. Also noted: conducted using rat liver membrane homogenates; from tissue; host or cells: rat liver membrane homogenates. The note with it: Table 4, Ki values of VAChT specific compounds, tissue not given.
Data set [6] has as its target T4, σ1 receptor (Cavia porcellus, UniProt Q60492).
T4 construct: using guinea pig brain membrane homogenates; from tissue; host or cells: guinea pig brain membrane homogenates
The experiment in a line: σ1 receptor binding assay, (+)-[3H]pentazocine, guinea pig brain membranes. The following applies: Table 4, Ki values of VAChT specific compounds; tissue not given; read-out: Sigma-1 σ1.

Data set [7] addresses T5, human vesicular acetylcholine transporter (VAChT) (Homo sapiens, UniProt Q16572).
T5 construct: expressed in transfected cells; host or cells: PC12 A123.7 cells (crude extract / homogenized, partially clarified cells)
T5 sequence (Q16572 1-532): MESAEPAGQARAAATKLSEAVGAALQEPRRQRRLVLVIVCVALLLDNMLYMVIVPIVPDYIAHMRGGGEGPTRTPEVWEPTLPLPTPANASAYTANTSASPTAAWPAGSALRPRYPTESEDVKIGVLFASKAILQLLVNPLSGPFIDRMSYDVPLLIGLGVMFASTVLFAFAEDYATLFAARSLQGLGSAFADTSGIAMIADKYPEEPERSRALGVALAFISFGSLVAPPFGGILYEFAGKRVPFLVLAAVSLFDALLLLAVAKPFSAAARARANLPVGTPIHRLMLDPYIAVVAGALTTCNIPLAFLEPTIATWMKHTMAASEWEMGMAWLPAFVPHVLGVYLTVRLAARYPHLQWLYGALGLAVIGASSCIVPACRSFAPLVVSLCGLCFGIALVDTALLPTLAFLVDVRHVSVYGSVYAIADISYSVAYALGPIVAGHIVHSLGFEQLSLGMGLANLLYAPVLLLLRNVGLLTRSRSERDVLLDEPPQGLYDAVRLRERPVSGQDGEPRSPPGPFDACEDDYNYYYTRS
The data set can be described thus: VAChT binding assay, (−)-[3H]vesamicol, human VAChT expressed in PC12 cells. The following applies: Table 4, Ki values of VAChT specific compounds, source not given.

Data set [8] addresses T6, VAChT (Homo sapiens, UniProt Q16572).
T6 sequence (Q16572 1-532): T5 sequence (Q16572 1-532)
The note with it: previous study; cited from earlier work.

Data set [9] has as its target T7, σ1 receptors (Mus musculus, UniProt O55242).
T7 construct: Ex vivo autoradiography studies were also conducted in mice; from tissue; host or cells: mouse brain (living animal, ex vivo autoradiography)
The experiment in a line: Ex vivo autoradiography of [11C]14e in mice. The following applies: 30 min post-injection. Here is the method:
(§1) Radiosynthesis of [^11C] […] Tissue samples were taken and converted to % ID/g for each organ. Ex vivo autoradiography studies were also conducted in mice at 30 min post-injection of the radiotracer. A microPET imaging study was also performed on a male cynomolgus monkey.

Data set [10] in a line: Biodistribution of [11C]14e in mice. It is filed as in vivo. Here is the method: as §1

Counter-ions that a name gives are not always drawn. Like-named read-outs stand apart in the source and are kept apart here.

T2 sequence (Q9R0C9 whole entry): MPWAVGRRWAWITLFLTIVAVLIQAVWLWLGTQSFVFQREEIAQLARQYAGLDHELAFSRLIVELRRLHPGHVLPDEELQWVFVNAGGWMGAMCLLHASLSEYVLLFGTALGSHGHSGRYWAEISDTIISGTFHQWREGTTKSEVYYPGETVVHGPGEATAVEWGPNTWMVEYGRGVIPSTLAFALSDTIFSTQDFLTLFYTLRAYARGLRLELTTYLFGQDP
T4 sequence (Q60492 whole entry): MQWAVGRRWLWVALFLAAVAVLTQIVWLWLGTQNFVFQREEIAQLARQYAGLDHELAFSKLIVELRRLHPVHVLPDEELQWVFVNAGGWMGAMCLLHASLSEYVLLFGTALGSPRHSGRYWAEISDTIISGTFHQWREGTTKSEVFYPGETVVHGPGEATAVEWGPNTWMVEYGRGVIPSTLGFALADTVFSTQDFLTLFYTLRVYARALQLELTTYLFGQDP
T7 sequence (O55242 whole entry): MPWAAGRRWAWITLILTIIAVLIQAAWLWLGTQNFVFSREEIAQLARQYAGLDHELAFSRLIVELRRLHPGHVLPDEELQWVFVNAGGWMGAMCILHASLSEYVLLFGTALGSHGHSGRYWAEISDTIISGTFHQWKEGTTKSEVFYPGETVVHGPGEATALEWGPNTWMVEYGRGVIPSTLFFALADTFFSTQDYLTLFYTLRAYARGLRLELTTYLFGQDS

In the case of `O=C(c1ccc(OCCF)cc1)C1CCN(C2Cc3ccccc3CC2O)CC1` (stereo not drawn) [TZ-3-148], the VAChT/σ selectivity result at VAChT [1] is given as “poor selectivity”. Besides, the Ki was found to be 13.2 ± 0.2 nM at σ1 receptors [2] and 1890 ± 239 nM on σ2 receptor [3].

As to `OC1CN(Cc2cccc(I)c2)CCC1N1CCC(c2ccccc2)CC1` (stereo not drawn) [meta-iodobenzyltrozamicol], the Ki at σ1 receptor [4] is 92 nM.

Regarding `COc1ccc(C(=O)C2CCN(C3Cc4c(N)cccc4CC3O)CC2)cn1` (stereo not drawn) [OS-5-82, (1-(8-Amino-3-hydroxy-1,2,3,4-tetrahydronaphthalen-2-yl)piperidin-4-yl)(6-methoxypyridin-3-yl)methanone oxalate], the Ki turned out to be 10800 ± 1280 nM on σ2 receptor [5] (read-out: Sigma-2 σ1); 5.682 ± 0.026 µM at σ1 receptor [6]; 23.3 ± 3.43 nM in [7] (read-out: VAChT); 48 ± 11.4 nM at VAChT [1]; 5682 ± 26 nM at σ1 receptors [2]; 10800 ± 1280 nM on σ2 receptor [3]. In addition, on VAChT [1], the VAChT/σ selectivity entry is recorded as “moderate or high”. For the same molecule, on VAChT [1], the σ1/VAChT is 118.4. Further, the σ2/VAChT at VAChT [1] is listed as 225.3.

Take `Nc1cccc2c1CC(N1CCC(C(=O)c3cccnc3)CC1)C(O)C2` (stereo not drawn) [OS-5-110, (1-(8-Amino-3-hydroxy-1,2,3,4-tetrahydronaphthalen-2-yl)piperidin-4-yl)(pyridin-3-yl)methanone oxalate]: the Ki was determined as 5080 ± 221 nM at σ2 receptor [5] (Sigma-2 σ1 (nM)); 2.2 nM in data set [7] (VAChT (nM)); 118 ± 23.6 nM on VAChT [1]; 20300 ± 8130 nM on σ1 receptors [2]; 5080 ± 221 nM on σ2 receptor [3]. Further, the VAChT/σ selectivity entry on VAChT [1] is listed as “moderate or high”. Also, the σ1/VAChT on VAChT [1] was found to be 172.4. Besides, the σ2/VAChT at VAChT [1] was 43.0.

On to `O[C@H]1CCCC[C@@H]1N1CCC(c2ccc(I)s2)CC1` [(1S,2S)-2-(4-(5-iodothiophen-2-yl)piperidin-1-yl)cyclohexanol], for which, at σ1 receptor [4], the Ki was 9.39 nM.

Regarding `Cn1cccc1C(=O)C1CCN(C2Cc3ccccc3CC2O)CC1` (stereo not drawn) [OS-5-60, (1-(3-Hydroxy-1,2,3,4-tetrahydronaphthalen-2-yl)piperidin-4-yl)(1-methyl-1H-pyrrol-2-yl) methanone oxalate], the Ki at σ2 receptor [5] (Sigma-2 σ1 (nM)) worked out at 2550 ± 339 nM. At VAChT [1], the Ki came to 18.4 ± 2.54 nM, the VAChT/σ selectivity entry is reported as “moderate or high”, the σ1/VAChT amounted to 70.7 and the σ2/VAChT is 138.8. Besides, on σ1 receptors [2], the Ki was 1300 ± 93 nM. Besides, the Ki at σ2 receptor [3] was 2550 ± 339 nM.

Consider `O=C(c1ccc([18F])cc1)C1CCN(C2Cc3ccccc3CC2O)CC1` (racemic) [FBBV, (±)-trcms-2-Hydroxy-3-(4-(4-[^18F]fluorobenzoyDpiperidino)tetralin], for which the Ki on VAChT [8] is 2.7 nM.

Regarding `Cc1ccc(C2CCN(C3CCCCC3O)CC2)cc1` (single isomer, unassigned; (-)) [(−)-p-methylvesamicol], the Ki on σ1 receptor [4] is 8.1 nM.

Regarding `CNc1ccc(C(=O)C2CCN(C3Cc4ccccc4CC3O)CC2)cc1` (stereo not drawn) [TZ-3-156], at VAChT [1], the Ki worked out at 3.03 nM, the VAChT/σ selectivity result was “high selectivity”, the σ1/VAChT came to 100.5 and the σ2/VAChT came to 2040. At σ1 receptors [2], the Ki stood at 13.2 ± 0.48 nM. Further, the Ki at σ2 receptor [3] was found to be 6180 ± 537 nM.

`Cc1ccc(C(=O)C2CCN(C3Cc4ccccc4CC3O)CC2)cn1` (stereo not drawn) [OS-5-40, oxalate]: the Ki amounted to 3770 ± 886 nM on σ2 receptor [5] (Sigma-2 σ1 (nM)), 2110 ± 289 nM on σ1 receptors [2] and 3770 ± 886 nM at σ2 receptor [3].

For the molecule `OC1CCCCC1N1CCC(c2ccccc2)CC1` (single isomer, unassigned; (-)) [(−)-vesamicol, (−)-trans-2-(4-phenylpiperidino)cyclohexanol], the Ki at σ1 receptor [4] is 73.5 nM.

As for `COc1ccc(C(=O)C2CCN(C3CCN(C(=O)c4ccc(F)cc4)CC3O)CC2)cc1` (stereo not drawn) (as salt: oxalate) [Compound 15e, (1′-(4-Fluorobenzoyl)-3′-hydroxy-[1,4′-bipiperidin]-4-yl)(4-methoxyphenyl)methanone], the melting point is 216 °C (dec.).

Regarding `[11CH3]Oc1ccc(C(=O)C2CCN([C@@H]3CCN(Cc4ccc(F)cc4)C[C@H]3O)CC2)cc1` [[^11C]14e, ((3′R,4′R)-1′-(4-fluorobenzyl)-3′-hydroxy-1,4′-bipiperidin-4-yl)(4-[^11C]methoxyphenyl)methanone], the “distribution in brain by autoradiography” value at σ1 receptors [9] is reported as “consistent with the distribution of σ1 receptors in brain”. Moreover, in data set [10] (5 min post-injection), the “regional brain uptake, cerebellum” value is given as 6.34±0.05 % ID/g; the “regional brain uptake, cortex” value was determined as 6.69±0.72 % ID/g; the “regional brain uptake, hippocampus” value is 5.41±0.30 % ID/g; the “regional brain uptake, striatum” value turned out to be 6.63±0.56 % ID/g. Moreover, in data set [10] (high between 5 and 30 min, washed out between 30 and 60 min), the clearance from brain result is reported as “suitable clearance from brain”.

As to `O=C(c1ccc(OCCF)nc1)C1CCN([C@H]2Cc3ccccc3C[C@@H]2O)CC1` [TZ-5-3], on VAChT [1], the Ki came to 38 ± 3.84 nM, the VAChT/σ selectivity entry is listed as “moderate or high”, the σ1/VAChT is 55.8 and the σ2/VAChT was found to be 48.9. The Ki on σ1 receptors [2] was determined as 2120 ± 49 nM. At σ2 receptor [3], the Ki was 1860 ± 144 nM.

In general, melting point refers to the temperature of the solid-liquid transition.

Values taken from patent publication US8658131B2, “Compounds comprising 4-benzoylpiperidine as a sigma-1-selective ligand” (Washington University, priority 2010, dated 2014).
